Results reported in PMC3760508 (Journal of medicinal chemistry, 2009).
pIC50: −log10 of the molar value.

Experiments:
particle = type: physicochemical; settings: for particles? lowest evaluated concentration at which particle formation was observed: flow cytometry, in some cases confirmed by DLS
cruzain = cruzain (Trypanosoma cruzi, UniProt P25779); assay: biochemical; type: biochemical; settings: for change of cruzain IC50 between low and high detergent concentration: 0.001% vs 0.01% Triton X-100; for cruzain inhibition (in words): Figure 1 analogs
Sequence of cruzain (P25779 123-467): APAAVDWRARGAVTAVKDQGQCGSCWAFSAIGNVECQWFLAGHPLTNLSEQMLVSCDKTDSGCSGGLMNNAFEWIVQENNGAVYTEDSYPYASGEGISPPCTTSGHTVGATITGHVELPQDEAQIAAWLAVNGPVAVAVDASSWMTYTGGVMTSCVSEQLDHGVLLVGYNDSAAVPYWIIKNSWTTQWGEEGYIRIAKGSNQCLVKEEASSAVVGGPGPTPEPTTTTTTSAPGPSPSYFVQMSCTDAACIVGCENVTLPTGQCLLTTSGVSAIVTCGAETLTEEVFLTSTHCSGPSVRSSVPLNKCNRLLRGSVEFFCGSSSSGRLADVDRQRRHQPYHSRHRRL

AmpC β-lactamase = AmpC β-lactamase (Escherichia coli, UniProt P00811); assay: AmpC β-lactamase detergent-sensitive inhibition; type: biochemical; settings: reversal by 0.01% Triton
Sequence of AmpC β-lactamase (P00811 20-377): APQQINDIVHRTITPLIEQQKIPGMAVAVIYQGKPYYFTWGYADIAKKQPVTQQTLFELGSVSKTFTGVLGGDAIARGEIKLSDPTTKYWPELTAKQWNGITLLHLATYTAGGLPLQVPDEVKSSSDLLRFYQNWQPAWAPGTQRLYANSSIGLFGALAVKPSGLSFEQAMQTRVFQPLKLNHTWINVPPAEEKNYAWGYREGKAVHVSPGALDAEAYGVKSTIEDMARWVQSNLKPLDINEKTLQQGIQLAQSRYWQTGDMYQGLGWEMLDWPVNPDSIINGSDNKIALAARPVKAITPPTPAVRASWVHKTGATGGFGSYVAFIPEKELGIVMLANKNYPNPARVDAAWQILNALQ

[1] = high Triton (0.01% Triton X-100), 23 at 50 μM
[2] = low Triton (0.001% Triton X-100), 23 at 5 μM, 1 at 25 μM

particles? lowest evaluated concentration at which particle formation was observed (particle) [µM]	SMILES	change of cruzain IC50 between low and high detergent concentration (cruzain)	mode of cruzain inhibition (cruzain; [1])	other results
>100	Nc1ccccc1-c1nnc(C(=O)Nc2ccc3oc4c(c3c2)CCCC4)o1 [Compound 12]			formation of colloidal aggregates (particles) (particle; DLS and flow cytometry, 0.001% Triton X-100, relevant inhibitory concentrations): the exception
	Cc1cccc(C(=O)OCC(=O)Nc2cc(Cl)ccc2Cl)c1 [Compound 5]			cruzain inhibition (in words) (cruzain): essentially inactive
	CCC(NC(=O)COC(=O)c1cccnc1N)c1ccc(Br)cc1 (stereo not shown) [Compound 3]	essentially unaltered	competitive inhibitors	
	Nc1ccccc1-c1nnc(C(=O)Nc2cc(-c3cccs3)[nH]n2)o1 [Compound 23]		competitive	pIC50 (cruzain): 4.08; mode of cruzain inhibition (cruzain; [2]): non-competitive
	Nc1ncccc1C(=O)OCC(=O)NC1CCCCCC1 [Compound 2]	essentially unaltered	competitive inhibitors	
	Cc1cc(NC(=O)c2nnc(-c3ccccc3N)o2)n[nH]1 [Compound 25]			detergent-reversible inhibition of AmpC β-lactamase (AmpC β-lactamase): the exception
>200	CCN1CCC[C@H]1CNC(=O)c1nnc(-c2ccccc2N)o1 [Compound 18]			
	O=C(COC(=O)c1ccccn1)Nc1cc(Cl)ccc1Cl [Compound 4]			cruzain inhibition (in words) (cruzain): essentially inactive

SMILES	particles? lowest evaluated concentration at which particle formation was observed (particle) [µM]	change of cruzain IC50 between low and high detergent concentration (cruzain)	mode of cruzain inhibition (cruzain; [1])	other results
Nc1ncccc1C(=O)OCC(=O)Nc1cc(Cl)ccc1Cl [Compound 1]	25	~ 3 fold	competitive inhibition	dependence of cruzain inhibition on incubation time (cruzain; 0.01% Triton X-100): independent of incubation time; mode of cruzain inhibition (cruzain; [2]): non-competitive; detergent-reversible inhibition of AmpC β-lactamase (AmpC β-lactamase): found to inhibit AmpC, and its inhibition was reversed by 0.01% Triton
